Experimental data from patent publication US20260224758A1, “ALPHA-SYNUCLEIN BINDERS AND METHODS OF USE” (Merck Sharp & Dohme LLC, priority 2023, published 2026).

What was measured:
[1] = biological target: T1, triton-extracted alpha-synuclein from PD Tissue (Homo sapiens, UniProt P37840); experiment: Alpha-synuclein tissue homogenate binding assay (Assay 1), displacement of [^3H]-1000; settings: for Selectivity ratio (Assay 2/Assay 1): Aβ Tissue Ki / α-synuclein Tissue Ki; for Ki: insoluble fraction of PD brain homogenate, [^3H]-1000 3.0 nM, Kd 0.90 nM, read-out: α-synuclein Tissue Ki (Assay 1)
T1 construct: tissue Analytic Biological Services Inc; host or cells: human PD temporal cortex grey matter, Triton X-100 insoluble pellet

[2] = biological target: aggregated beta amyloid in AD tissue (Homo sapiens, UniProt P05067); experiment: Competitive radioligand binding to pathological aggregated beta amyloid in AD tissue (Assay 2), displacement of [^3H]-105; settings: Aβ-rich AD frontal cortex homogenate, [^3H]-105, Kd 11.0 nM
[3] = biological target: T2, alpha-synucleinopathy of PD brain (Homo sapiens, UniProt P37840); experiment: In vitro autoradiography of [^3H]-2 on PD brain sections with IHC comparison; assay type: binding; settings: PD brain amygdala section, 3 nM radioligand
T2 construct: They are post-mortem tissue from donors with clinical diagnosis of PD or non-PD; tissue Banner Sun Health Institute; Sydney Brain Bank; Analytic Biological Services Inc; Discovery Life Science; host or cells: human PD cerebral cortex homogenates (A4); human PD amygdala cryosections (A5)
Method: (§1) To assess presence of alpha synucleinopathy (Lewy body, LB and Lewy neurites, LN) in the tested human brain samples, the adjacent human PD brain slices were used for Autoradiography (ARG) and Immunihistochemistry (1HC) studies. ARG was done using radio-labelled compounds which bind to LB and LN of PD brain sections. 1HC was performed with antibodies for LB & LN (LB509), Aβ (6E10) and p-tau (AT8). Tissue homogenate binding was performed using human PD brain homogenates of cerebral cortex. Human brains from donor without neurological disorder were used as control in the same study.
The frozen human brain samples of Parkinson's disease (PD) were provided by Banner Sun Health Institute (USA) and Sydney Brain Bank (Australia) through collaboration with Michael J Fox Foundation (MJFF). Additional PD and non-PD brain samples were purchased from vendors (Analytic Biological Services Inc., ABS, and Discovery Life Science, DLS). […] Total binding of radioligand in a brain slice was defined in the absence of competitor, and non-displaceable binding (NDB) was determined in the presence of competitor (1.0 μM unlabeled selfblock). […] After three weeks exposure, the plates were scanned in Amersham Typhoon Imager, and the scanned images were analyzed using MCID 7.1 software. [^3H]-microscales (Amersham Biosciences, GE), were used for quantification of radioligand binding density. […]

[4] = biological target: human Parkinson's Disease tissue homogenates (Homo sapiens, UniProt P37840); experiment: Hot saturation binding of [^3H]-2 in human PD cerebral cortex homogenates; settings: PD Cortex (n = 5)
Method: as §1
The frozen human brain samples of Parkinson's disease (PD) were provided by Banner Sun Health Institute (USA) and Sydney Brain Bank (Australia) through collaboration with Michael J Fox Foundation (MJFF). […]
[^3H]-2 was synthesized by Radio Compound Labelling Synthesis Group at Merck. […] Total binding was defined in the absence of competing compound, and non-displaceable binding was determined in the presence of 1 μM unlabeled self-block. […]
Incubation was carried out at 37° C. for 120 minutes, and then the assay samples were filtered onto GF/C filters using Skatron 12 well harvester, washing on setting 5-5-5 (~3×2 ml) ice cold buffer (Tris, pH 7.5). […] Add liquid scintillation fluid (2 mL Ultima Gold) into each vial, allow to soak into filters for 4 hours and counted in on Perkin Elmer Tri-Carb 2900TR for 1 minute. […]

[5] = [^11C]-2 PET imaging in rhesus monkey; assay type: in vivo; settings: IV, averaged over 30-90 minutes post injection
Method: A fasted rhesus monkey (7-11 kg) is anesthetized with ketamine I.M. (15 mpk) and the monkey is placed in the PET camera bed. An I.V, catheter is inserted into the right saphenous vein. For arterial sampling, the right femoral area is aseptically prepared and an arterial catheter is placed and fixed with sutures.
Subsequent anesthesia is maintained with Propofol. Induction dose is 5 mg/kg I.V., followed by an infusion at 0.4-0.6 mg/kg/min for the duration of the scanning procedure. The animal is intubated and positioned inside the camera gantry supine, head first. Animal is maintained on ventilated medical grade air:oxygen gas mixture at approximately 23 respirations per minute for the duration of the study. Ventilation I:E ratio, volume and rate of respiration is adjusted to maintain CO2 levels about 40 mmHg and SpO2 levels 95 to 100%. A temperature probe, pulse oximeter, non-invasive blood pressure cuff, and end tidal CO2 monitor are connected. […]
Whole blood samples are collected via arterial catheter into Heparin tubes for determination of radioactivity in whole blood and plasma. Samples are centrifuged and 20 μl whole blood and plasma are counted 20, 40, 80, 100, 120, and 150 seconds post PET ligand injection. Samples of blood (0.8 ml) are taken for metabolite correction and determination of radioactivity in plasma and whole blood at 3, 5, 15, 30, 60, and 90 minutes. […]

Sequence of aggregated beta amyloid in AD tissue (P05067 672-711 limits assumed): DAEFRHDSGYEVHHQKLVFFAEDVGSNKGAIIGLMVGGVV

Row | Selectivity ratio (Assay 2/Assay 1) [1] | Ki [1] | Ki [2] | distribution in monkey brain (PET image) [5] | SMILES | autoradiographic binding versus LB509 and AT8 immunoreactivity [3] | Bmax [4]
1 | 705 | 1.7 nM | ≥ 1200 nM |  | COC[C@H]1CN(c2ncc(C#Cc3ccc(-c4cnn(CCOCCF)c4)nc3)cn2)CCN1c1ncncn1 [Example 77, (R)-2-(4-(5-((6-(1-(2-(2-fluoroethoxy)ethyl)-1H-pyrazol-4-yl)pyridin-3-yl)ethynyl)pyrimidin-2-yl)-2-(methoxymethyl)piperazin-1-yl)-1,3,5-triazine] |  | 
2 | 753 | 1.59 nM | ≥ 1200 nM |  | Cn1cc(-c2ncc(C#Cc3cnc(N4CCN(c5ncncn5)[C@@H](COCCOCCF)C4)nc3)cn2)cn1 [Example 78, (R)-2-(2-((2-(2-fluoroethoxy)ethoxy)methyl)-4-(5-((2-(1-methyl-1H-pyrazol-4-yl)pyrimidin-5-yl)ethynyl)pyrimidin-2-yl)piperazin-1-yl)-1,3,5-triazine] |  | 
3 | 840 | 1.43 nM | ≥ 1200 nM |  | Cn1cc(-c2ncc(C#Cc3cnc(N4CCN(c5ncccn5)[C@@H](COCCOCCOCCF)C4)nc3)cn2)cn1 [Example 82, (R)-2-(3-((2-(2-(2-fluoroethoxy)ethoxy)ethoxy)methyl)-4-(pyrimidin-2-yl)piperazin-1-yl)-5-((2-(1-methyl-1H-pyrazol-4-yl)pyrimidin-5-yl)ethynyl)pyrimidine] |  | 

Second part, the molecule before the results:

Row | SMILES | Selectivity ratio (Assay 2/Assay 1) [1] | Ki [1] | Ki [2] | distribution in monkey brain (PET image) [5] | autoradiographic binding versus LB509 and AT8 immunoreactivity [3] | Bmax [4]
4 | COCCOC[C@H]1CN(c2ncc(C#Cc3ccc(-n4ccnc4)nc3)c(F)n2)CCN1c1ncncn1 [Example 80, (R)-2-(4-(5-((6-(1H-imidazol-1-yl)pyridin-3-yl)ethynyl)-4-fluoropyrimidin-2-yl)-2-((2-methoxyethoxy)methyl)piperazin-1-yl)-1,3,5-triazine] | 794 | 1.51 nM | ≥ 1200 nM |  |  | 
5 | [3H]C([3H])([3H])OC[C@H]1CN(c2ncc(C=Cc3ccc(-n4ccnc4)nc3)cn2)CCN1c1ncccn1 [[^3H]-2, [^3H]-(R,E)-5-(2-(6-(1H-imidazol-1-yl)pyridin-3-yl)vinyl)-2-(3-(methoxymethyl)-4-(pyrimidin-2-yl)piperazin-1-yl)pyrimidine] |  |  |  |  | specific binding | 17.0 ± 5.2 nM
6 | [11CH3]OC[C@H]1CN(c2ncc(/C=C/c3ccc(-n4ccnc4)nc3)cn2)CCN1c1ncccn1 [[^11C]-2] |  |  |  | suitable distribution |  | 
